Measured values: the NIST ThermoML archive (doi:10.1021/je060271a)

Settings: 343.15 K, Liquid, Vibrating tube method

CCCCCCC(=O)OCC(COC(=O)CCCCCC)(COC(=O)CCCCCC)COC(=O)CCCCCC [pentaerythritol tetraheptanoate]
Settings	mass density [kg/m3]
7850.3 kPa	946.4
7873.8 kPa	946.5
7893.3 kPa	946.5
7913.5 kPa	946.6
7937 kPa	946.6
7957 kPa	946.6
7977.2 kPa	946.6
8001.2 kPa	946.6
8021.7 kPa	946.5
8042.2 kPa	946.6
8067.3 kPa	946.5
8088 kPa	946.6
8109.4 kPa	946.6
8130.2 kPa	946.6
8151.8 kPa	946.6
8177.7 kPa	946.8
8199.3 kPa	946.8
8220.8 kPa	946.7
8246.2 kPa	946.7
8268.1 kPa	946.7
8290 kPa	946.7
8311.6 kPa	946.9
8338.1 kPa	946.7
8361.6 kPa	946.7
8384.3 kPa	946.8
8406.7 kPa	946.8
8433.8 kPa	946.9
8456.2 kPa	946.9
8479.4 kPa	946.9
8502.3 kPa	946.8
8530.3 kPa	946.9
8553.5 kPa	946.9
8577.2 kPa	946.9
8605.4 kPa	947
8629.1 kPa	947
8653.2 kPa	947
8683.2 kPa	947
8702.1 kPa	947.2
8731.5 kPa	947.1
8755.6 kPa	947.1
8780.3 kPa	947.2
8809.9 kPa	947.1
8834.4 kPa	947.2
8864.2 kPa	947.3
8889.4 kPa	947.1
8914.2 kPa	947.2
8939.2 kPa	947.2
8970.1 kPa	947.3
8995.6 kPa	947.2
9022.5 kPa	947.3
9053.7 kPa	947.3
9079.4 kPa	947.3
9110.6 kPa	947.5
9136.4 kPa	947.5
9163.7 kPa	947.4
9195.6 kPa	947.5
9222.6 kPa	947.5
9249.7 kPa	947.4
9282.3 kPa	947.4
9309.7 kPa	947.4
9337.9 kPa	947.6
9371.4 kPa	947.5
9400.1 kPa	947.5
9428.6 kPa	947.6
9456.7 kPa	947.6
9491 kPa	947.7
9519.9 kPa	947.6
9549 kPa	947.8
9584 kPa	947.6
9613.7 kPa	947.9
9649.3 kPa	947.7
9679.5 kPa	947.8
9709.5 kPa	947.9
9739.8 kPa	947.8
9777.3 kPa	947.7
9809 kPa	947.8
9840.2 kPa	947.9
9878.1 kPa	948
9910.3 kPa	947.8
9943.2 kPa	947.8
9983.2 kPa	948
10018 kPa	947.9
10052 kPa	947.9
10080 kPa	948.1
10104 kPa	948.1
10124 kPa	948
10144 kPa	948
10169 kPa	948.1
10189 kPa	948.2
10207 kPa	948.2
10224 kPa	948.1
10244 kPa	948.2
10261 kPa	948.2
10281 kPa	948.2
10298 kPa	948.3
10315 kPa	948.2
10335 kPa	948.2
10352 kPa	948.3
10370 kPa	948.3
10390 kPa	948.3
10408 kPa	948.2
10425 kPa	948.3
10445 kPa	948.3
10463 kPa	948.3
10481 kPa	948.2
10502 kPa	948.4
10520 kPa	948.3
10537 kPa	948.3
10558 kPa	948.4
10576 kPa	948.3
10594 kPa	948.4
10613 kPa	948.5
10635 kPa	948.4
10655 kPa	948.5
10673 kPa	948.4
10692 kPa	948.5
10710 kPa	948.5
10732 kPa	948.5
10750 kPa	948.5
10769 kPa	948.6
10791 kPa	948.6
10810 kPa	948.6
10832 kPa	948.8
10851 kPa	948.6
10870 kPa	948.6
10893 kPa	948.6
10909 kPa	948.6
10932 kPa	948.7
10951 kPa	948.6
10975 kPa	948.7
10994 kPa	948.7
11014 kPa	948.7
11033 kPa	948.8
11056 kPa	948.7
11076 kPa	948.8
11096 kPa	948.8
11120 kPa	948.9
11140 kPa	948.8
11160 kPa	948.7
11184 kPa	948.8
11204 kPa	948.8
11224 kPa	948.8
11245 kPa	948.8
11269 kPa	948.8
11289 kPa	948.9
11310 kPa	949
11335 kPa	948.8
11356 kPa	948.9
11380 kPa	948.8
11401 kPa	949.1
11422 kPa	948.9
11447 kPa	949
11469 kPa	949.1
11490 kPa	949
11511 kPa	948.9
11537 kPa	949.2
11558 kPa	949.1
11584 kPa	949.2
11606 kPa	949.1
11627 kPa	949.2
11649 kPa	949
11675 kPa	949.3
11697 kPa	949.1
11719 kPa	949.2
11746 kPa	949.3
11768 kPa	949.2
11794 kPa	949.3
11817 kPa	949.3
11840 kPa	949.2
11862 kPa	949.3
11889 kPa	949.4
11911 kPa	949.2
11939 kPa	949.3
11962 kPa	949.5
11985 kPa	949.4
12012 kPa	949.4
12036 kPa	949.4
12060 kPa	949.5
12088 kPa	949.5
12112 kPa	949.3
12136 kPa	949.5
12159 kPa	949.5
12188 kPa	949.5
12212 kPa	949.6
12241 kPa	949.5
12265 kPa	949.6
12290 kPa	949.5
12314 kPa	949.6
12344 kPa	949.5
12368 kPa	949.6
12394 kPa	949.7
12424 kPa	949.8
12449 kPa	949.7
12474 kPa	949.9
12504 kPa	949.7
12530 kPa	949.7
12555 kPa	949.8
12581 kPa	949.7
12612 kPa	949.9
12638 kPa	949.9
12664 kPa	949.8
12695 kPa	949.8
12722 kPa	950
12750 kPa	949.9
12776 kPa	950
12803 kPa	949.8
12834 kPa	950.1
12861 kPa	950.1
12894 kPa	950
12921 kPa	950.1
12948 kPa	950
12975 kPa	950
13007 kPa	950.1
13035 kPa	950.2
13069 kPa	950.1
13098 kPa	950.1
13127 kPa	950.2
13155 kPa	950.2
13189 kPa	950.3
13217 kPa	950.3
13246 kPa	950.3
13275 kPa	950.3
13311 kPa	950.4
